Test results reported in patent publication US6518243B1, “Desleucyl glycopeptide antibiotics and methods of making same” (Trustees of Princeton University, priority 1999, dated 2003).

Legend:
E. faceium (ATCC 49624) = assay: Zone of inhibition screen, 96 well agar array format;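 further: score 3 means fourfold and score 4 sixteenfold the reference zone size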; format: cell-based, E. faecium; details: zone of inhibition relative to 1 mg/ml p-chlorobiphenylvancomycin
Experimental: The antibacterial activity of each of the compounds against the bacterial strains E. faceium (ATCC 49624), S. epidermidis (ATCC 12228), S. aureus (ATCC 29213), E. faecalis (CL 4877) and E. faecalis (ATCC 292121) was tested. Each of the compounds was screened in a 96 will agar array format.

E. faecalis (CL 4877) = assay: as above; format: cell-based; design: scale not given here; details: zone of inhibition relative to 1 mg/ml p-chlorobiphenylvancomycin
Procedure, shortened: (§1)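 Read-out is antibacterial activity on agar laid out as a 96-well array; every compound went through all strains of the panel.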

S. aureus (ATCC 29213) = assay: as above; format: cell-based; design: scale not given here; details: zone of inhibition relative to 1 mg/ml p-chlorobiphenylvancomycin
Procedure, shortened: as §1

[1] = test system: S. epidermidis (ATCC 12228); assay: as above; format: cell-based; design: scale not given here; details: zone of inhibition relative to 1 mg/ml p-chlorobiphenylvancomycin
Procedure, shortened: as §1

E. faecium ATCC 49624 = assay: MIC determination in BHI media, OD600; format: cell-based; details: BHI + 0.1% casamino acids, 18 hours at 37° C., ≧90% OD600 inhibition
Experimental: (§2) Logarithmically growing cells were diluted to approximately 5×10^5 CFU/ml and subjected to test compounds solubilized and serially diluted in DMSO. […] After 18 hours at 37° C., the OD600 was determined by reading the ninety-six well microtiter plates on a microplate reader. For a given concentration, an MIC determination was made if: […]

S aureus ATCC 29213 = assay: MIC determination in BHI media, OD600; format: cell-based; details: BHI + 0.1% casamino acids, 18 hours at 37° C., ≧90% OD600 inhibition
Experimental: as §2

S. Aureus ATCC 33591 = assay: MIC determination in BHI media, OD600; format: cell-based; details: BHI + 0.1% casamino acids, 18 hours at 37° C., ≧90% OD600 inhibition
Experimental: as §2

Row | Structure (SMILES) | zone score, E. faecium ATCC 49624 (E. faceium (ATCC 49624)) | zone score, E. faecalis CL 4877 (E. faecalis (CL 4877)) | zone score, S. aureus ATCC 29213 (S. aureus (ATCC 29213)) | zone score, S. epidermidis ATCC 12228 [1] | MIC E. faecium ATCC 49624 (E. faecium ATCC 49624) | MIC S. aureus ATCC 29213 (S aureus ATCC 29213) | MIC S. aureus ATCC 33591 (S. Aureus ATCC 33591)
1 | CC1OC(OC2C(Oc3c4cc5cc3Oc3ccc(cc3Cl)C(O)C3NC(=O)C(NC(=O)C5NC(=O)C(CC(N)=O)NC(=O)C(NC(=O)CCS(=O)(=O)c5ccccc5)C(O)c5ccc(c(Cl)c5)O4)c4ccc(O)c(c4)-c4c(O)cc(O)cc4C(C(=O)O)NC3=O)OC(CO)C(O)C2O)CC(C)(NCc2ccc(-c3ccc(Cl)cc3)cc2)C1O (stereo not shown) [Compound 246] | 2 | – | – | – | – | – | –
2 | CC1OC(OC2C(Oc3c4cc5cc3Oc3ccc(cc3Cl)C(O)C3NC(=O)C(NC(=O)C5NC(=O)C(CC(N)=O)NC(=O)C(NC(=O)c5ccccc5SCCS(=O)(=O)c5ccc(Cl)cc5)C(O)c5ccc(c(Cl)c5)O4)c4ccc(O)c(c4)-c4c(O)cc(O)cc4C(C(=O)O)NC3=O)OC(CO)C(O)C2O)CC(C)(NCc2ccc(-c3ccc(Cl)cc3)cc2)C1O (stereo not shown) [Compound 301] | – | 2 | 2 | 2 | – | – | –
3 | CC1OC(OC2C(Oc3c4cc5cc3Oc3ccc(cc3Cl)C(O)C3NC(=O)C(NC(=O)C5NC(=O)C(CC(N)=O)NC(=O)C(NC(=O)c5ccccn5)C(O)c5ccc(c(Cl)c5)O4)c4ccc(O)c(c4)-c4c(O)cc(O)cc4C(C(=O)O)NC3=O)OC(CO)C(O)C2O)CC(C)(NCc2ccc(-c3ccc(Cl)cc3)cc2)C1O (stereo not shown) [Compound 312] | – | 2 | 2 | 2 | – | – | –
4 | CC1OC(OC2C(Oc3c4cc5cc3Oc3ccc(cc3Cl)C(O)C3NC(=O)C(NC(=O)C5NC(=O)C(CC(N)=O)NC(=O)C(NC(=O)c5cccc[n+]5[O-])C(O)c5ccc(c(Cl)c5)O4)c4ccc(O)c(c4)-c4c(O)cc(O)cc4C(C(=O)O)NC3=O)OC(CO)C(O)C2O)CC(C)(NCc2ccc(-c3ccc(Cl)cc3)cc2)C1O (stereo not shown) [Compound 313] | – | 2 | 2 | 2 | – | – | –
5 | CC(=O)C(=O)NC1C(=O)NC(CC(N)=O)C(=O)NC2C(=O)NC3C(=O)NC(C(=O)NC(C(=O)O)c4cc(O)cc(O)c4-c4cc3ccc4O)C(O)c3ccc(c(Cl)c3)Oc3cc2cc(c3OC2OC(CO)C(O)C(O)C2OC2CC(C)(NCc3ccc(-c4ccc(Cl)cc4)cc3)C(O)C(C)O2)Oc2ccc(cc2Cl)C1O (stereo not shown) [Compound 314] | – | 2 | 2 | 2 | – | – | –
6 | CC1OC(OC2C(Oc3c4cc5cc3Oc3ccc(cc3Cl)C(O)C3NC(=O)C(NC(=O)C5NC(=O)C(CC(N)=O)NC(=O)C(NC(=O)C=Cc5c[nH]cn5)C(O)c5ccc(c(Cl)c5)O4)c4ccc(O)c(c4)-c4c(O)cc(O)cc4C(C(=O)O)NC3=O)OC(CO)C(O)C2O)CC(C)(NCc2ccc(-c3ccc(Cl)cc3)cc2)C1O (stereo not shown) [Compound 321] | – | 2 | 2 | 2 | – | – | –
7 | COCCC(N)C(=O)NC1C(=O)NC(CC(N)=O)C(=O)NC2C(=O)NC3C(=O)NC(C(=O)NC(C(=O)O)c4cc(O)cc(O)c4-c4cc3ccc4O)C(O)c3ccc(c(Cl)c3)Oc3cc2cc(c3OC2OC(CO)C(O)C(O)C2OC2CC(C)(NCc3ccc(-c4ccc(Cl)cc4)cc3)C(O)C(C)O2)Oc2ccc(cc2Cl)C1O (stereo not shown) [Compound 322] | – | 2 | 2 | 2 | – | – | –
8 | CC(O)C(N)C(=O)NC1C(=O)NC(CC(N)=O)C(=O)NC2C(=O)NC3C(=O)NC(C(=O)NC(C(=O)O)c4cc(O)cc(O)c4-c4cc3ccc4O)C(O)c3ccc(c(Cl)c3)Oc3cc2cc(c3OC2OC(CO)C(O)C(O)C2OC2CC(C)(NCc3ccc(-c4ccc(Cl)cc4)cc3)C(O)C(C)O2)Oc2ccc(cc2Cl)C1O (stereo not shown) [Compound 323] | – | 2 | 2 | 2 | – | – | –
9 | CNC(COCc1ccccc1)C(=O)NC1C(=O)NC(CC(N)=O)C(=O)NC2C(=O)NC3C(=O)NC(C(=O)NC(C(=O)O)c4cc(O)cc(O)c4-c4cc3ccc4O)C(O)c3ccc(c(Cl)c3)Oc3cc2cc(c3OC2OC(CO)C(O)C(O)C2OC2CC(C)(NCc3ccc(-c4ccc(Cl)cc4)cc3)C(O)C(C)O2)Oc2ccc(cc2Cl)C1O (stereo not shown) [Compound 331] | – | – | – | – | 0.39 µg/mL | 0.78 µg/mL | 0.78 µg/mL
10 | CC1OC(OC2C(Oc3c4cc5cc3Oc3ccc(cc3Cl)C(O)C3NC(=O)C(NC(=O)C5NC(=O)C(CC(N)=O)NC(=O)C(NC(=O)C(N)Cc5c[nH]cn5)C(O)c5ccc(c(Cl)c5)O4)c4ccc(O)c(c4)-c4c(O)cc(O)cc4C(C(=O)O)NC3=O)OC(CO)C(O)C2O)CC(C)(NCc2ccc(-c3ccc(Cl)cc3)cc2)C1O (stereo not shown) [Compound 555] | – | – | – | – | 0.39 µg/mL | 0.78 µg/mL | 0.39 µg/mL
